Test results taken from US5427942A (State of Oregon, Acting by and Through the Oregon State …, priority 1991, dated 1995).

Columns and labels:
[1] = tested on: COS-7 cells; conditions: previously shown (Zhou et al., 1990); cited from earlier work
[2] = tested on: D5 pseudogenes D5.psi.1 (HGRI-6) and D5.psi.2 (HGRI-8); experiment: [3H]SCH23390 binding to membranes of cells transfected with putative pseudogenes; parameters: species or system human; conditions: each of the two putative pseudogenes

For `CN1CCc2cc(Cl)c(O)cc2[C@@H](c2ccccc2)C1` [SCH23390], the “ability to bind SCH23390” value [1] is listed as “lack the ability to bind”.

In the case of `CN1CCc2cc(Cl)c(O)cc2[C@@H](c2ccccc2)C1` [[^3 H]SCH23390], the “binding to pseudogene-transfected membranes” value [2] is reported as “failed to bind”.
